Measurements: patent US20260297070A1, “CYCLIC [COMPOUND LEFT OUT] WRN INHIBITORS” (Nimbus Wadjet, Inc., priority 2023, published 2026)

target: T1, human Werner helicase (WRN-BV08, Uniprot Q14191, amino acids 517-1235 with L1074F point mutation) (Homo sapiens, UniProt Q14191, L1074F); assay: WRN (BV08) ADP-Glo Assay; format: biochemical; settings: 0.15 nM WRN, 5 μM ATP, 0.1 nM DNA duplex, 15 min preincubation, 60 min at 25° C., pH 7.5, 1% DMSO; read-out: ADP-Glo_hWRN_IC50
T1 construct: Uniprot Q14191, amino acids 517-1235 with L1074F point mutation; TEV-cleavable 8×His (C, cleaved yes); made in house; host or cells: Sf9 insect cells (baculovirus)
T1 sequence (Q14191 with tags, fused parts or gaps L1074F limits assumed): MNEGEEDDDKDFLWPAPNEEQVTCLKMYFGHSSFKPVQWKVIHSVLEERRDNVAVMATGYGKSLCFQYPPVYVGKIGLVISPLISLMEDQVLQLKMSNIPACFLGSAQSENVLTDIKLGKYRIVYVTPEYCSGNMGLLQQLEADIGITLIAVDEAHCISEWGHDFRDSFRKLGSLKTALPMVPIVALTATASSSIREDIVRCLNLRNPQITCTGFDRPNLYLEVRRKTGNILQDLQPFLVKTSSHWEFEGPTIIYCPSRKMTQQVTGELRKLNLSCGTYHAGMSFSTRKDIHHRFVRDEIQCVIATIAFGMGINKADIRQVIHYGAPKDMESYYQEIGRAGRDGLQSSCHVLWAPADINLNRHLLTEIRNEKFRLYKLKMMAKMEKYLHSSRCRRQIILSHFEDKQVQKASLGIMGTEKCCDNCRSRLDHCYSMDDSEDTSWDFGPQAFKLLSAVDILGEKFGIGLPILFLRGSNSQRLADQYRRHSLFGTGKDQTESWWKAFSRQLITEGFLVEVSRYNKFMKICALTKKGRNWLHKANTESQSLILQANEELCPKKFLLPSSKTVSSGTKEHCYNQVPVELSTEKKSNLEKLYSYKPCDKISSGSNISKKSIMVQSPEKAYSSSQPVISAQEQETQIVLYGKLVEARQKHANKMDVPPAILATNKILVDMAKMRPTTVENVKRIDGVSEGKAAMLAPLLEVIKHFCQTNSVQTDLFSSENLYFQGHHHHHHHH
In short: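 ADP-Glo luminescence read-out of ATP hydrolysis. Conditions: 0.15 nM WRN, 5 μM ATP, 0.1 nM DNA duplex, 1% DMSO, 60 min at 25 °C after 15 min compound preincubation. Max/min controls were DMSO and 20 μM NSC-617145; IC50 from four-parameter fit.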

| IC50 | SMILES |
| --- | --- |
| 10 to 50 µM | O=C(Cc1ccc(-c2ccc(F)cc2)cc1CO)N(Cc1ccncc1)C1C=CS(=O)(=O)C1 (stereo not shown) [I-350, N-(1,1-dioxo-2,3-dihydro-1lambda6-thiophen-3-yl)-2-[4′-fluoro-3-(hydroxymethyl)-[1,1′-biphenyl]-4-yl]-N-[(pyridin-4-yl)methyl]acetamide] |
| < 0.5 µM | O=C(Cn1cc(-c2cc(F)c(F)c(F)c2)cn1)N(Cc1ccnc(Oc2ccncc2)c1)C1C=CS(=O)(=O)C1 (stereo not shown) [I-772, N-(1,1-dioxo-2,3-dihydro-1lambda6-thiophen-3-yl)-N-{[2-(pyridin-4-yloxy)pyridin-4-yl]methyl}-2-[4-(3,4,5-trifluorophenyl)-1H-pyrazol-1-yl]acetamide] |
| > 50 µM | O=C(Cc1cccc(CC(F)(F)F)c1)N(Cc1ccncc1)C1C=CS(=O)(=O)C1 (stereo not shown) [I-393, N-(1,1-dioxo-2,3-dihydro-1lambda6-thiophen-3-yl)-N-[(pyridin-4-yl)methyl]-2-[3-(2,2,2-trifluoroethyl)phenyl]acetamide] |
| > 50 µM | O=C(Cn1cc2ccccc2n1)N(Cc1ccncc1)C1C=CS(=O)(=O)C1 (stereo not shown) [I-433, N-(1,1-dioxo-2,3-dihydro-1lambda6-thiophen-3-yl)-2-(2H-indazol-2-yl)-N-[(pyridin-4-yl)methyl]acetamide] |
| > 50 µM | O=C1Nc2ccccc2C1CCC(=O)N(Cc1ccncc1)C1C=CS(=O)(=O)C1 (stereo not shown) [I-585, N-(1,1-dioxo-2,3-dihydro-1lambda6-thiophen-3-yl)-3-(2-oxo-2,3-dihydro-1H-indol-3-yl)-N-[(pyridin-4-yl)methyl]propanamide] |

More lines, now with the values behind:

| SMILES | IC50 |
| --- | --- |
| COc1cc(CN(C(=O)C(c2ccc(-c3ccc(F)c(F)c3)cc2F)n2nccc2C)[C@@H]2C=CS(=O)(=O)C2)ccn1 (single isomer, unassigned) [I-738, (2R*)-N-[(3R)-1,1-dioxo-2,3-dihydro-1lambda6-thiophen-3-yl]-N-[(2-methoxypyridin-4-yl)methyl]-2-(5-methyl-1H-pyrazol-1-yl)-2-{3,3′,4′-trifluoro-[1,1′-biphenyl]-4-yl}acetamide] | > 50 µM |
| CC(=O)N(C)CC(C(=O)N(Cc1ccncc1)C1C=CS(=O)(=O)C1)c1ccc(-c2ccc(F)cc2)cc1 (stereo not shown) [I-452, N-(1,1-dioxo-2,3-dihydro-1lambda6-thiophen-3-yl)-2-{4′-fluoro-[1,1′-biphenyl]-4-yl}-3-(N-methylacetamido)-N-[(pyridin-4-yl)methyl]propanamide] | > 50 µM |
| COC(C(=O)N(Cc1ccccc1)C1C=CS(=O)(=O)C1)c1ccc(-n2cccc2)cc1 (stereo not shown) [I-337, N-benzyl-N-(1,1-dioxo-2,3-dihydro-1lambda6-thiophen-3-yl)-2-methoxy-2-[4-(1H-pyrrol-1-yl)phenyl]acetamide] | 10 to 50 µM |
| COc1cc(CN(C(=O)Cc2ccc(-c3ccc(F)cc3O)nc2)C2C=CS(=O)(=O)C2)ccn1 (stereo not shown) [I-194, N-(1,1-dioxido-2,3-dihydrothiophen-3-yl)-2-(6-(4-fluoro-2-hydroxyphenyl)pyridin-3-yl)-N-((2-methoxypyridin-4-yl)methyl)acetamide] | 5 to 10 µM |
| O=C(Cc1ccc(-n2cccc2)cc1)N(Cc1ccccn1)C1C=CS(=O)(=O)C1 (stereo not shown) [I-467, N-(1,1-dioxo-2,3-dihydro-1lambda6-thiophen-3-yl)-N-[(pyridin-2-yl)methyl]-2-[4-(1H-pyrrol-1-yl)phenyl]acetamide] | > 50 µM |
| CC(C)(O)c1cc(CN(C(=O)C(OCCC(F)F)c2ccc(-c3ccc(F)c(F)c3)cc2F)[C@@H]2C=CS(=O)(=O)C2)ccn1 (single isomer, unassigned) [I-812] | < 0.5 µM |
| O=C(NC(Cc1c[nH]c2ccccc12)C(=O)N(Cc1ccncc1)C1C=CS(=O)(=O)C1)c1ccc(F)cc1 (single isomer, unassigned) [I-561] | > 50 µM |
| O=C(Cc1ccc(-n2cccc2)cc1)N(Cc1nc2c(s1)CCC2)C1C=CS(=O)(=O)C1 (stereo not shown) [I-155, N-({4H,5H,6H-cyclopenta[d][1,3]thiazol-2-yl}methyl)-N-(1,1-dioxo-2,3-dihydro-1lambda6-thiophen-3-yl)-2-[4-(1H-pyrrol-1-yl)phenyl]acetamide] | 0.5 to 5 µM |
